Laboratory results from publication PMC6696373 (Molecules, 2019).
“Also recorded” adds a separate entry of the source. Each block holds one substance with its values, some of them ahead of it. Where no end group is shown, it is not given here.

Legend:
[1] = tested on: Caco-2 cell monolayers; conditions: cited from earlier work
Protocol: To elucidate the transepithelial transport pathway of WGAPSL, some inhibitors, such as cytochalasin D, wortmannin, sodium azide, and Gly-Pro, were added to Caco-2 cell monolayers (Figure 4).

[2] = tested on: Caco-2 cell monolayers; conditions: cited from earlier work; remark: listed apart in the source
Text: The apparent permeability coefficient (Papp) value reflects the velocity of passage through the epithelium.

[3] = tested on: 1:10,000 pepsin, then 1:250 trypsin; test: simulated gastrointestinal digestion: pepsin in HBSS at pH 2.0, then trypsin at pH 7.5; conditions: 37 °C, up to 90 min (pepsin) then 4 h (trypsin)
[4] = Caco-2 cell monolayers in HBSS, apical (AP) and basolateral (BL) sides; conditions: human, 37 °C, up to 120 min
[5] = CCK-8 cytotoxicity assay; type: cell-based, human; conditions: human, Caco-2, 10 mM peptide in DMEM, 2 h incubation then 4 h with CCK-8, 37 °C, absorbance, three replications, read-out: Survival rate of Caco-2 cells
Protocol: (§1) The effects of the WGAPSL peptide on Caco-2 cell proliferation were observed using the CCK-8 cell counting kit (Dojindo, Japan). The WST-8 (2-(2-methoxy-4-nitrophenyl)-3-(4-nitrophenyl)-5-(2,4-disulfophenyl)-2H-tetrazolium, monosodium salt) reagent was used based on the kit specifications. Caco-2 cells were plated in 96-well culture plates in a final volume of 100 μL/well of culture medium (1 × 10^5 cells/well) at 37 °C in 5% CO2 for 24 h and incubated with 1–10 mM WGAPSL (diluted in DMEM) or DMEM only for 2 h, followed by incubation with 10 μL CCK-8 and incubation for another 4 h and then the absorbance was measured.

[6] = tested on: Caco-2 cells; test: CCK-8 cytotoxicity assay; type: cell-based, human; conditions: 2 h incubation then 4 h with CCK-8, 37 °C, absorbance, three replications
Protocol: as §1

[7] = tested on: pepsin and trypsin; test: Simulated gastrointestinal digestion (two-stage pepsin then trypsin hydrolysis); type: in vitro ADME; conditions: 1 mg/mL in HBSS, pepsin pH 2.0, E/S 1:50 w/w, 37 °C, 90 min, then trypsin pH 7.5, E/S 1:50 w/w, 4 h, LC-MS, mean ± spread
Protocol: Simulated gastrointestinal digestion was done based on the method of Quirós et al.. Synthetic peptide (1 mg/mL) was prepared in HBSS and acidified with HCl to reach pH 2.0, then hydrolyzed with 1:10,000 pepsin at an enzyme/substrate ratio of 1:50 (w/w), and incubated in constant temperature water oscillation at 37 °C for 90 min with a low shaking rate (120 rpm). After gastric digestion, samples were adjusted to pH 7.5 with saturated NaHCO3 and 1:250 trypsin was added at an enzyme/substrate ratio of 1:50 (w/w), and incubated in constant temperature water oscillation at 37 °C for 4 h with a low shaking rate (120 rpm). Reactions were stopped in a boiling water bath for 10 min. Digested samples were centrifuged (3K15, SIGMA Laborzentrifugen GmbH, Germany) at 30,000× g at 4 °C for 20 min and diluted 100 times to analyze peptide concentrations using liquid chromatography-tandem mass spectrometry (LC-MS, 1200, Agilent, CA, USA).

[8] = tested on: Caco-2 cell monolayers; test: Transepithelial transport across Caco-2 cell monolayers; type: in vitro ADME, human; conditions: concluded from the efflux ratio in Caco-2 monolayers
Protocol: Caco-2 cells were obtained from China Infrastructure of Cell Line Resource (Beijing, China) and were cultured based on the method of Zhang et al.. Cells were cultured in MEM containing 10% fetal bovine serum, 1 mM nonessential amino acid solution, 1% penicillin-streptomycin, and 1% HEPES buffer. Caco-2 cells were seeded at 5 × 10^5 cells/mL in 25 cm^2 tissue culture flasks, and incubated at 37 °C in 5% CO2 with 95% humidity. The passage number of the cells used in the study was between 30 and 40. The medium in cell cultures were replaced every two days and detached from 70–80% confluency using 0.05% trypsin and 0.02% Ethylene Diamine Tetraacetic Acid (EDTA) solution. For the transport experiments, Caco-2 cells were seeded into a collagen-coated transwell plate (6.5 mm diameter, 0.4 μm pore size Corning Costar) at a density of 1 × 10^5 cells/well. […]
The bilateral transport experiments also assessed transport from the BL to AP side. […]
The Papp values were calculated as follows (Equation (1)):(1) Papp=dQ/dt×1/A×1/C0 where dQ/dt is the permeability rate (mmol/s); A is the membrane area (cm^2); and C0 is the initial concentration of peptide solution in the donor chamber (mM). […]
A standard curve was prepared with a synthetic peptide diluted in HBSS, and the peptide concentrations were 0–3.9 μM. The curve was analyzed as indicated above for the BL samples. […]

[9] = tested on: Caco-2 cell monolayers; test: Effects of transport pathway inhibitors on peptide transport in Caco-2 cell monolayers; type: in vitro ADME, human; conditions: Caco-2 AP→BL, 2 mM in HBSS pH 7.4, 120 min, LC-MS
Protocol: Prior to transport experiments, Caco-2 cell monolayers were gently rinsed with HBSS, and then incubated for 30 min at 37 °C in 5% CO2. Afterwards, HBSS was drawn from both the AP side and BL side of all wells. HBSS (0.1 mL) with 2 mM WGAPSL was added to the AP side and 0.6 mL of fresh HBSS was added to the BL side. All transwell plates were incubated at 37 °C in 5% CO2 for 30, 60, 90, or 120 min. The transport experiment was done in triplicate for three consecutive days after 21 days, in which the cell model was developed.
Four inhibitors, including transport inhibitors cytochalasin D (a cell tight junction disruptor, 0.5 μg/mL), wortmannin (transcytosis inhibitor, 500 nM), sodium azide (ATP synthesis inhibitor, 10 mM), and Gly-Pro (transport peptide PepT 1 substrate, 10 mM) were applied to identify the transport routes of the peptide. After 120 min, the concentration of the peptide was determined in the basolateral samples [6].
Analysis of AP and BL samples gathered after the transport of WGAPSL across Caco-2 cells was performed by Agilent LC-MS (6420 Triple Quad, […]). A symmetrical 4.6 × 250 mm C18 column (GL Sciences, Tokyo, Japan) was used for fragments separations. The analysis was done in the MS Scan mode, and the injection volume was set to 20 μL. The peptide was applied in formic acid as an organic regulator to improve the MS signal of the peptide. Solvents A and B were formic acid/milli Q water (0.1:100, v/v) and formic acid/acetonitrile (0.1:100, v/v). For WGAPSL, the sample elution was run at 0.7 mL/min using a linear gradient of solvent B in A from 18% to 43% for 25 min, 43–100% for 5 min, and 100–18% for 10 min to equalize the column. The accumulation and ionization conditions in the ion trap were optimized automatically, and the target mass of the molecular ion was as follows: m/z 630.633 (WGAPSL).

Substance: Gln-Ile-Gly-Leu-Phe [QIGLF]
Change of Papp value after cytochalasin D treatment [1]: significantly (p < 0.05) increased

Substance: Val-Pro-Pro [VPP]
Papp value [2]: 0.005 ×10⁻⁶ cm/s

fragment found [3]: APSL and PSL and GAPSL and WGA and WG
Substance: WGAPSL
cleaved bond [4]: W-G, 120 min; also recorded: P-S, 120 min; also recorded: S-L, 120 min

Stability (intact peptide) after simulated gastric and intestinal digestion [7]: 83.9% ± 1.98 | P-glycoprotein substrate status [8]: not a substrate of P-glycoprotein | Effect of wortmannin on peptide concentration (BL side) ([9]; 30 min preincubation with 500 nM wortmannin (transcytosis inhibitor)): did not significantly (p > 0.05) affect | Effect of Gly-Pro on peptide transport ([9]; 30 min preincubation with 10 mM Gly-Pro (PepT1 substrate)): not significantly (p > 0.05) decreased | Effect of sodium azide on peptide transport ([9]; 30 min preincubation with 10 mM sodium azide (ATP synthesis inhibitor)): A similar result | Increase of peptide concentration in the BL side vs control, with cytochalasin D ([9]; 30 min preincubation with cytochalasin D 0.5 μg/mL (tight junction disruptor), p < 0.05): 66%
Substance: WGAPSL [WGAPSL, Trp-Gly-Ala-Pro-Ser-Leu]
viability at 2 h, 10000 µM [5]: 27% | Cytotoxicity for Caco-2 cells ([6]; 1 mM peptide in DMEM): non-toxic | Cytotoxicity for Caco-2 cells ([6]; 2 mM peptide in DMEM): non-toxic
